# Assay results reported in patent US9511086B2, “Method for improving immune system function by administering agents that inhibit DNA-dependent protein kinase-directed apoptosis” (The Board of Trustees of the Leland Stanford Junior …, priority 2010, dated 2016).
# T1: IL-1R type I (Homo sapiens, UniProt P14778)
# T1 sequence (P14778 18-569): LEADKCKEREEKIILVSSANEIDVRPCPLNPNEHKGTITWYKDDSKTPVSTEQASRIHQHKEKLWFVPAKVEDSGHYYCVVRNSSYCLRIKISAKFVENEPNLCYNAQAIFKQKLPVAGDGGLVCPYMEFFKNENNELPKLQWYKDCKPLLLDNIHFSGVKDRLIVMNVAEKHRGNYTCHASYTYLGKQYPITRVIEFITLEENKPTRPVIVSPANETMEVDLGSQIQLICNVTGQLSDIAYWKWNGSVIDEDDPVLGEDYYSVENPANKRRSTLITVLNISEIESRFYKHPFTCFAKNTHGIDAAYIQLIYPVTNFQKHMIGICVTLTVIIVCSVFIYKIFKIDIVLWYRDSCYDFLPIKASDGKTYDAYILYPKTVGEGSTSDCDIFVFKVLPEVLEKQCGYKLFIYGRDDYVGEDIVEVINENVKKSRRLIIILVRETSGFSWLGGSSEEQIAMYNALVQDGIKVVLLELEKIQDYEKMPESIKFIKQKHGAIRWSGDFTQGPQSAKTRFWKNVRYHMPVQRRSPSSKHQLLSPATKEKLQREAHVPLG
# B1: IL-7: growth-promoting, T-cell homeostatic cytokine (protein, UniProt P13232 26-177, looked up)
# Interleukin-7: DCDIEGKDGKQYESVLMVSIDQLLDSMKEIGSNCLNNEFNFFKRHICDANKEGMFLFRAARKLRQFLKMNSTGDFDLHLLKVSEGTTILLNCTGQVKGRKPAALGEAQPTKSLEENKSLKEQKKLNDLCFLKRLLQEIKTCWNKILMGTKEH
# Tests used:
# [1] = system: B cells in blood and tissue; details: cynomolgus monkeys; cited from earlier work
# [2] = system: rheumatoid arthritis; details: cited from earlier work
# [3] = target: T1, IL-1R type I; details: cited from earlier work
# [4] = target: TNFα (Homo sapiens, UniProt P01375); details: cited from earlier work
# [5] = system: CD4+CD45RO− T cells from RA patients; assay: T-cell apoptosis by flow cytometry staining for PI, RA T cells; format: cell-based, human
# Protocol: FIG. 5. Inhibition of DNA-PKcs activity protects RA T cells from apoptosis. CD4+CD45RO− T cells were isolated from 6 control donors and 7 RA patients. Cells were maintained in culture without stimulation for 48 h and then were treated with the DNA-PKcs inhibitor IC86621 (50 nM, 100 nM) or vehicle for 24 h. Cells were harvested and (A) T-cell apoptosis was measured by flow cytometry staining for PI. Representative cytometric data from one patient and one control are shown. (B) Frequencies of PI-positive T-cells in the absence and presence of the DNA-PKcs inhibitor from 6 controls and 7 RA patients are presented as mean±SEM.
# FIG. 6. Silencing of the DNA-PKcs gene reduces apoptosis in RA T cells. CD4+CD45RO− T cells were purified from 3 control donors and 3 RA patients and transfected with control or DNA-PKcs specific siRNA oligonucleotides by nucleofection. (A, B) Twenty-four hours after transfection, DNA-PKcs transcript levels were quantified by qPCR, and DNA-PKcs protein levels were detected by Western blotting. (C) T-cell apoptosis was analyzed by staining for PI. Representative data from one patient and one control are shown. (D) Cell apoptosis from 3 control and 3 RA samples are presented as mean±SEM.
# FIG. 7. […] (A) CD4+CD45RO− T cells were isolated and cultured in the presence of the indicated enzyme inhibitors for 24 h. T-cell apoptosis was quantified through flow cytometry staining for PI. (B) Cells were maintained in culture without stimulation for 48 h and then were treated with the JNK inhibitor. PI-positive T cells were measured after 24 h of treatment with the JNK inhibitor II (5 μM or 10 μM) or vehicle. Frequencies of apoptotic T cells from 6 controls and 7 RA patients are presented as mean±SEM. (C) Representative flow cytometry results from one control and one patient. (D) Flow cytometry analysis of phosphorylated JNK levels in control and RA T cells after culturing without mitogenic stimulation for 72 h. Representative data from one patient and one control are presented. (E) Expression of pJNK protein in n=6 RA and n=6 control samples at 72 h is given as MFI of FITC-pJNK. (F) Flow cytometry analysis of phosphorylated JNK levels in freshly isolated control and RA naïve CD4 T cells. Expression of pJNK protein in n=7 RA and n=7 control samples at day 0 is given as MFI of FITC-pJNK. (G) Quantification of JNK and pJNK protein expression at 72 h by Western blotting. (H) Relative expression levels of pJNK were quantified by measuring band intensities adjusted by total JNK in 6 RA patients and 6 control donors. Data are presented as mean±SEM. (I) CD4+CD45RO− T cells were purified from RA donors and transfected with control or DNA-PKcs-specific siRNA oligonucleotides by nucleofection. Twenty-four hours after transfection, DNA-PKcs and pJNK protein levels were detected by Western blotting. A representative blot from three independent experiments is shown.
# Peripheral blood mononuclear cells (PBMC) were separated from whole blood with Lymphocyte Separation Medium (Mediatech Inc., Herndon, Va.). CD45RO^− cells were negatively selected with microbeads (Miltenyi Biotec Inc., Auburn, Calif.), and the naïve CD4^+CD45RO^− population was subsequently selected with CD4 microbeads (autoMACS, Miltenyi Biotec Inc.).
# CD4^+CD45RO^− T cells were maintained in a resting state in DMEM without mitogenic stimulation for three days. In selected experiments, T-cell homeostatic cytokines were supplemented. To test for the role of signaling networks in mediating apoptosis, the following inhibitors were added to the cultures at day 0: DNA-PKcs inhibitor IC86621 (Sigma-Aldrich, St. Louis, Mo.), JNK inhibitor II (Calbiochem, La Jolla, Calif.), p38 inhibitor (Alexis Biochemicals, Plymouth Meeting, Pa., SB203580), CaM inhibitor (Calbiochem), NE-KB inhibitor (Calbiochem), and AKT inhibitor (Calbiochem). […]
# [6] = system: Bim; assay: Bim protein level by flow cytometry in RA T cells; format: cell-based, human; details: treated vs untreated
# Protocol: (§1) FIG. 8. The DNA-PKcs-JNK pathway upregulates the apoptogenic molecules Bim and Bmf in RA CD4+ T cells. CD4+CD45RO− T cells were isolated from the peripheral blood of 6 controls and 6 RA patients. Cells were maintained in culture without mitogenic stimulation for 72 h. (A) Puma, Noxa, Bim and Bmf transcript levels in freshly isolated cells were quantified by qPCR. Data are presented as mean±SEM. (B) Flow cytometry analysis of Bim levels in control and RA naïve T cells after 72 h of culture. Expression of Bim protein in n=5 RA and n=5 controls samples is given as MFI of Alexa Fluor 488 Bim. (C) Flow cytometry analysis of Bmf levels in control and RA naïve T cells. Expression of Bmf protein in n=6 RA and n=4 controls samples is given as MFI of PE Bmf. (D) Bcl-2 protein levels were analyzed by flow cytometry. Expression of Bcl-2 protein in n=6 RA and n=6 control samples is given as MFI of FITC Bcl-2. (E) Bim protein level in the absence and presence of the DNA-PKcs inhibitor were analyzed by flow cytometry in samples from 4 RA patients. […]
# (§2) For intracellular staining, cells were fixed directly with 1.5% formaldehyde for 10 min at room temperature and resuspended in 90% methanol. […] Proteins or 8-oxoguanine expression were detected by an LSRII flow cytometer (BD Biosciences). Data were analyzed by FlowJo software (Tree Star Inc., Ashland, Oreg.). […]
# [7] = system: Bmf; assay: Bmf protein level by flow cytometry in RA T cells; format: cell-based, human; details: treated vs untreated
# Protocol: as §1, §2
# [8] = system: CD4+CD45RO− T cells from RA patients and controls; assay: T-cell apoptosis (PI) with homeostatic cytokines; format: cell-based, human; details: 72 h culture; IL-2 20 U/ml, IL-7 20 ng/ml, IL-15 10 ng/ml; similar in control and RA T cells
# Protocol: FIG. 1. […] CD4+CD45RO− T cells were isolated from the peripheral blood of RA patients and controls. Cells were maintained in culture without mitogenic stimulation for 72 h. (A) T cells undergoing apoptosis were identified by Annexin V and 7-AAD staining in patient-derived and control samples. Data are given as mean±SEM from 6 patients and 6 controls. (B) Representative data from one patient and one control collected after 72 h are shown. (C) Cells were maintained in culture with IL-2 (20 U/ml), IL-7 (20 ng/ml), IL-15 (10 ng/ml), or a mixture of the three (Mix) for 72 h. T cells undergoing apoptosis were identified by PI staining. Data are given as mean±SEM from 7 patients and 5 controls. (D) DNA breaks were quantified by comet assay after 72 h. Data are given as mean±SEM of 7 patients and 6 controls with a minimum of 90 individual cells analyzed in each sample.
# To quantify T-cell apoptosis, CD4^+CD45RO^− cells were washed and suspended in 500 μl FACS buffer supplemented with EasyComp Blank Particles (Spherotech, Lake Forest, Ill.). Uptake of PI (Sigma-Aldrich) was determined by flow cytometry. Apoptotic cells were detected with PE-Annexin V (BD Biosciences, San Jose, Calif.) and 7-AAD (BD Biosciences).
# Sequence of TNFα (P01375 77-233 limits assumed): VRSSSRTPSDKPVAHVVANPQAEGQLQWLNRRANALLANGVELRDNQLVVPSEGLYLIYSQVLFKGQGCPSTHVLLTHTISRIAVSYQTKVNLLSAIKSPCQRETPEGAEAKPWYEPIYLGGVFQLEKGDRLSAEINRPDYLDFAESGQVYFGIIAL
molecule,measurement,setting,value
LymphoStat-B: fully human IgG1λ monoclonal antibody that neutralizes human BlyS,B cells in blood and tissue,[1],selectively reduces B cells in blood and tissue
same,toxicity,[1],no overt toxicity
"CN(Cc1cnc2nc(N)nc(N)c2n1)c1ccc(C(=O)N[C@@H](CCC(=O)O)C(=O)O)cc1 [MTX, Methotrexate]",patients having some response,[2],70%
Anakinra: human recombinant IL-1 receptor antagonist,affinity of binding to IL-1R type I,[3],same affinity as IL-1
Etanercept,affinity for TNFα of the dimeric receptor relative to the monomeric receptor,[4],50-1000 fold
"O=C1c2ccccc2-c2n[nH]c3cccc1c23 [JNK inhibitor II, anthra(1,9-cd)pyrazol-6(2H)-one]",T cell death in screen with panel of signal pathway inhibitors,"[5]; RA T cells cultured with inhibitor for 24 h, PI staining",able to protect RA T cells from dying
same,death rate in dose-response experiments,"[5]; RA T cells, 48 h culture then 5 μM or 10 μM for 24 h",normalize the death rate
same,effectiveness of 10 μM compared with 5 μM,"[5]; RA T cells, PI-positive cells after 24 h of treatment",more effective
same,intracellular Bim levels,[6],reduced
same,intracellular Bmf levels,[7],reduced
"IL-15: growth-promoting, T-cell homeostatic cytokine",apoptosis rates / T-cell attrition,[8],prevented only one-third of the T-cell attrition
B1,apoptosis rates / T-cell attrition,[8],prevented only one-third of the T-cell attrition
